Results from paper PMC9343791, “Evaluation of Herb–Drug Interaction Between Danshen and Rivaroxaban in Rat and Human Liver Microsomes” (Frontiers in Pharmacology, 2022).

Assays:
CYP2J3 = molecular target: T1, CYP2J3 (Rattus norvegicus, UniProt P51590); assay: astemizole probe-substrate inhibition in pooled rat liver microsomes, LC-MS/MS; assay type: biochemical
T1 sequence (P51590 1-502): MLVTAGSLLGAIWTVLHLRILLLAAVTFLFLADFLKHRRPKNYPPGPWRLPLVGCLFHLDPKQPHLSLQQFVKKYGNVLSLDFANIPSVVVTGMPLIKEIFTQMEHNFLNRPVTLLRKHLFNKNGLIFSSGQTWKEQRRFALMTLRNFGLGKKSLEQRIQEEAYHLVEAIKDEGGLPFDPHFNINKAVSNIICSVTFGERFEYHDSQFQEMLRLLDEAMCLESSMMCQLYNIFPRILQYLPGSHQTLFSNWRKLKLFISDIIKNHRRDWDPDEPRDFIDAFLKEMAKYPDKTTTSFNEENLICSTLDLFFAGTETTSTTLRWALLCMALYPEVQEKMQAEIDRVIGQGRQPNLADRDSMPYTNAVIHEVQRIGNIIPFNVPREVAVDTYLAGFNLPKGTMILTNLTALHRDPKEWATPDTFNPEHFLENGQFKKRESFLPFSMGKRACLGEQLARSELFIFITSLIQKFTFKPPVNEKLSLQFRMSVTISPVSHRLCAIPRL

CYP3A2 = molecular target: T2, CYP3A2 (Rattus norvegicus, UniProt P05183); assay: midazolam probe-substrate inhibition in pooled rat liver microsomes, LC-MS/MS; assay type: biochemical
T2 sequence (P05183 1-504): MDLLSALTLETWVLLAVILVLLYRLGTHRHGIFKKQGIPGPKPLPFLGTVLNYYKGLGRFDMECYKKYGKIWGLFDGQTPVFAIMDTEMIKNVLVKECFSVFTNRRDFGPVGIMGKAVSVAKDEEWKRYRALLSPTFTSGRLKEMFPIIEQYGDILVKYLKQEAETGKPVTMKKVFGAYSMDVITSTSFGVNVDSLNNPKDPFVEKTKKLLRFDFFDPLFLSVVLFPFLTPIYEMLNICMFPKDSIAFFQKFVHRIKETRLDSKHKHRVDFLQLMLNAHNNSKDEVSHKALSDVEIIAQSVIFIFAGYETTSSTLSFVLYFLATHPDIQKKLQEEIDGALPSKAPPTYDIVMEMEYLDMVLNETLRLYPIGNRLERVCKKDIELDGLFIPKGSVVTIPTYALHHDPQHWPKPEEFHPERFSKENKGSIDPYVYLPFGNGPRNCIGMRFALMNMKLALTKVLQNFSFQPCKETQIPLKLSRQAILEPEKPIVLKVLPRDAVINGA

How did the IC50 (CYP2J3) turn out when `Cc1cccc2c3c(ccc12)C1=C(C(=O)C3=O)[C@@H](C)CO1` [dihydrotanshinone I] was run?
The IC50 was 6.39 µM.

What about the IC50 (CYP3A2) of the same compound?
The IC50 was 13.8 µM.
